Measurements reported in patent US20250268903A1, “RXFP1 AGONISTS” (BRISTOL-MYERS SQUIBB COMPANY, priority 2021, published 2025).

The molecules below were run against T1, human RXFP1 (Homo sapiens, UniProt Q9HBX9) (assay: hRXFP1 HEK293 cAMP assay (HTRF)). Conditions: HEK293 cells stably expressing human RXFP1, 30 min at room temperature.
T1 construct: expressed in transfected cells
T1 sequence (Q9HBX9 1-757): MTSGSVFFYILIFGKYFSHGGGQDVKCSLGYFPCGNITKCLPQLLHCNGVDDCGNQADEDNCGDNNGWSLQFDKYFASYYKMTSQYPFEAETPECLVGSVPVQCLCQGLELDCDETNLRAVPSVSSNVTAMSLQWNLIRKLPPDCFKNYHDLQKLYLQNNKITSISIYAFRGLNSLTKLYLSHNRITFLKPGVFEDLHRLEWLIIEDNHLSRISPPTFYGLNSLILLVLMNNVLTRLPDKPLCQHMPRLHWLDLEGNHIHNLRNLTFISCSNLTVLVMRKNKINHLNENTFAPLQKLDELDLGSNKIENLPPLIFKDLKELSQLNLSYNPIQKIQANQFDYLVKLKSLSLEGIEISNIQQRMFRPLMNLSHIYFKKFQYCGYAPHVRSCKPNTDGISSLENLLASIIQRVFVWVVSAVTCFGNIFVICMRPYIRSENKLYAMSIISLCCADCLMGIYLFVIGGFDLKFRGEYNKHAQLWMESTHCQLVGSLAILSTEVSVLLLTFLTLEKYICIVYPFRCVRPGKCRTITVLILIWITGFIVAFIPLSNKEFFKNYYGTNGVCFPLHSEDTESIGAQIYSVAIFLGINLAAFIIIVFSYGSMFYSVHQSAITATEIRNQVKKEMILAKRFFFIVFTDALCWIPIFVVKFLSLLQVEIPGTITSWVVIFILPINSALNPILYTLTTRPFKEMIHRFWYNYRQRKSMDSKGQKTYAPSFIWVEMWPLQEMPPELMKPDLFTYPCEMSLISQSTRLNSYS
Format: cell-based
Summary of the method: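 HEK293 cells stably expressing human RXFP1 were suspended in HBSS (Ca/Mg) with 20 mM HEPES, 0.05% BSA and 0.5 mM IBMX, then treated with compounds (0.010 nM–50 μM, 2% DMSO final) for 30 min at room temperature. Intracellular cAMP was measured by HTRF, and potency was derived from 4-parameter logistic fits.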
COc1cc(COC2(CO)CC2)ccc1C(=O)N[C@H]1[C@@H](C(=O)Nc2ccc(F)c(C(F)(F)F)c2)[C@H]2CC[C@@H]1/C2=C\C1CC1 [Example 14, (1R,2S,3R,4R,Z)-7-(cyclopropylmethylene)-N-(4-fluoro-3-(trifluoromethyl)phenyl)-3-(4-((1-(hydroxymethyl)cyclopropoxy)methyl)-2-methoxybenzamido) bicyclo[2.2.1]heptane-2-carboxamide] was tested, and the EC50 was 13 nM. With COc1ccc(COC[C@@H]2C[C@@H]2C(=O)OCc2ccccc2)cc1C(=O)N[C@H]1[C@@H](C(=O)Nc2ccc(F)c(C(F)(F)F)c2)[C@H]2CC[C@@H]1/C2=C\C1CC1 [Example 287, benzyl (1S, 2R)-2-{[(3-{[(1R,3S,4R,7Z)-7-(cyclopropylmethylidene)-3-{[4-fluoro-3-(trifluoromethyl)phenyl]carbamoyl}bicyclo[2.2.1]heptan-2-yl]carbamoyl}-4-methoxyphenyl)methoxy]methyl} cyclopropane-1-carboxylate] the EC50 was 1290 nM. For COc1ccc(C2CC(CO)C2)cc1C(=O)N[C@H]1[C@@H](C(=O)Nc2ccc(F)c(C(F)(F)F)c2)[C@H]2CC[C@@H]1/C2=C\C1CC1 (stereo partly drawn) [Example 333, (1R,2S,3R,4R,7Z)-7-(cyclopropyl-methylidene)-N-[4-fluoro-3-(trifluoromethyl)phenyl]-3-[5-[3-(hydroxymethyl)cyclobutyl]-2-methoxybenzamido} bicyclo[2.2.1]heptane-2-carboxamide], the EC50 was 62.3 nM. In the case of COc1ccc(COC2CCC(OCc3ccccc3)CC2)cc1C(=O)N[C@@H]1C2CCC(/C2=C/C2CC2)[C@@H]1C(=O)Nc1ccc(F)c(C(F)(F)F)c1 (single isomer, unassigned) [Example 24], the EC50 is reported as 1810 nM. COc1ccc(C2CCCC(NC(=O)C3CCOCC3)C2)cc1C(=O)N[C@@H]1C2CCC(/C2=C/C(F)(F)F)[C@@H]1C(=O)Nc1ccc(F)c(C(F)(F)F)c1 (single isomer, unassigned) [Example 48] showed an EC50 of 833 nM. Molecule O=C(N[C@H]1[C@@H](C(=O)Nc2ccc(F)c(C(F)(F)F)c2)[C@H]2CC[C@@H]1/C2=C\C(F)(F)F)c1cc(C#CCO)ccc1OCCO [Example 106, (1R,2S,3R,4R,Z)—N-(4-fluoro-3-(trifluoromethyl)phenyl)-3-(2-(2-hydroxyethoxy)-5-(3-hydroxyprop-1-yn-1-yl)benzamido)-7-(2,2,2-trifluoroethylidene) bicyclo[2.2.1]heptane-2-carboxamide] has an EC50 of 377 nM. COc1ccc(C(=O)N2CC(C)(C)C2)cc1C(=O)N[C@H]1[C@@H](C(=O)Nc2ccc(F)c(C(F)(F)F)c2)[C@H]2CC[C@@H]1/C2=C\C1CC1 [Example 237] gave an EC50 of 41.3 nM. COc1ccc(CCc2ccc(OC)c(C(=O)NC3C4CCC(/C4=C/C(F)(F)F)[C@@H]3C(=O)Nc3ccc(F)c(C(F)(F)F)c3)c2)cc1 (stereo partly drawn) [Example 188, (7Z)-N-[4-fluoro-3-(trifluoromethyl)phe-nyl]-3-{2-methoxy-5-[2-(4-methoxyphenyl)ethyl]benzamido}-7-(2,2,2-trifluoroethylidene)bi-cyclo[2.2.1]heptane-2-carboxamide] was tested, and the EC50 was 56 nM. Molecule COc1ccc(C(=O)N2CCC(O)CC2)cc1C(=O)N[C@H]1[C@@H](C(=O)Nc2ccc(F)c(C(F)(F)F)c2)[C@H]2CC[C@@H]1/C2=C\C1CC1 [Example 230, (1R,2S,3R,4R,7Z)-7-(cyclopropyl-methylidene)-N-[4-fluoro-3-(trifluoromethyl)phenyl]-3-[5-(4-hydroxypiperidine-1-carbonyl)-2-methoxybenzamido] bicyclo[2.2.1] heptane-2-carboxamide] has an EC50 of 26 nM. Molecule COc1ccc(C#CCCOC(=O)NC2CCC2)cc1C(=O)N[C@@H]1C2CCC(/C2=C/C(F)(F)F)[C@@H]1C(=O)Nc1ccc(F)c(C(F)(F)F)c1 (stereo partly drawn) [Example 79, 4-(3-{[(2R,3S,7Z)-3-{[4-fluoro-3-(trifluoromethyl)phe-nyl]carbamoyl}-7-(2,2,2-trifluoroethylidene)bi-cyclo[2.2.1]heptan-2-yl]carbamoyl}-4-methoxyphenyl)but-3-yn-1-yl N-cyclobutylcarbamate] has an EC50 of 104 nM. Work on “(1R,4R,7Z)-N-[4- fluoro-3- (trifluoromethyl) phenyl]-3-[5-(3- hydroxypropyl)-2- methoxybenzamido]- 7-[(oxolan-3- yl)methylidene] bicyclo[2.2.1] heptane- 2-carboxamide [Example 264]” yielded an EC50 of 459 nM. For COc1c(F)cc(C(=O)N2CC(S(C)(=O)=O)C2)cc1C(=O)N[C@H]1[C@@H](C(=O)Nc2ccc(F)c(C(F)(F)F)c2)[C@H]2CC[C@@H]1/C2=C\C1CCCC1 [Example 365, (1R,2S,3R,4R,7Z)-7-(cyclopentyl-methylidene)-N-[4-fluoro-3-(trifluoromethyl)phenyl]-3-[3-fluoro-5-(3-methanesulfonyl-azetidine-1-carbonyl)-2-methoxybenzamido] bicyclo[2.2.1]heptane-2-carboxamide], the EC50 was 2.8 nM. COc1ccc(CCC(C)(C)O)cc1C(=O)NC1C2CCC(/C2=C/C2CCOC2)[C@@H]1C(=O)Nc1ccc(F)c(C(F)(F)F)c1 (stereo partly drawn) [Example 169, (7Z)-N-[4-fluoro-3-(trifluoromethyl)phe-nyl]-3-[5-(3-hydroxy-3-methylbutyl)-2-methoxybenzamido]-7-[(oxolan-3-yl)methylidene]bicy-clo[2.2.1]heptane-2-carboxamide] showed an EC50 of 102 nM. “(1R,4R,7Z)-N-[4- fluoro-3- (trifluoromethyl) phenyl]-3-[5-(3- hydroxypropyl)-2- methoxybenzamido]- 7-[(oxan-3- yl)methylidene] bicyclo[2.2.1]heptane- 2-carboxamide [Example 263]” was tested, and the EC50 was 318 nM. For COc1ccc(CN2C(=O)NC3(CCOC3)C2=O)cc1C(=O)N[C@H]1[C@@H](C(=O)Nc2ccc(F)c(C(F)(F)F)c2)[C@H]2CC[C@@H]1/C2=C\C1CC1 (stereo partly drawn) [Example 295, (1R,2S,3R,4R,7Z)-7-(cyclopropyl-methylidene)-3-[5-({2,4-dioxo-7-oxa-1,3-diazaspiro[4.4]nonan-3-yl}methyl)-2-methoxybenzamido]-N-[4-fluoro-3-(trifluoromethyl)phenyl]bicyclo [2.2.1]heptane-2-carboxamide], the EC50 was 70.4 nM. With COc1ccc(C(=O)NC(C)(C)C)cc1C(=O)N[C@H]1[C@@H](C(=O)Nc2ccc(F)c(C(F)(F)F)c2)[C@H]2CC[C@@H]1/C2=C\C1CC1 [Example 236, N1-tert-butyl-N3-[(1R,2R,3S,4R,7Z)-7-(cyclopropyl-methylidene)-3-{[4-fluoro-3-(trifluoromethyl)phenyl]carbamoyl}bicyclo[2.2.1]heptan-2-yl]-4-methoxybenzene-1,3-dicarboxamide] the EC50 was 234 nM. COc1ccc(CO)cc1C(=O)N[C@H]1[C@@H](C(=O)Nc2ccc(F)c(C(F)(F)F)c2)[C@H]2CC[C@@H]1/C2=C\C(F)(F)F [Example 10, (1R,2S,3R,4R,Z)—N-(4-fluoro-3-(trifluoromethyl)phenyl)-3-(5-(hydroxymethyl)-2-methoxybenzamido)-7-(2,2,2-trifluoroethylidene) bicyclo[2.2.1]heptane-2-carboxamide] gave an EC50 of 962 nM. For COc1ccc(C(=O)N(C)CCS(C)(=O)=O)cc1C(=O)N[C@H]1[C@@H](C(=O)Nc2ccc(F)c(C(F)(F)F)c2)[C@H]2CC[C@@H]1/C2=C\C1CC1 [Example 250, N3-[(1R,2R,3S,4R,7Z)-7-(cyclopropyl-methylidene)-3-{[4-fluoro-3-(trifluoromethyl)phenyl]carbamoyl}bicyclo[2.2.1]heptan-2-yl]-N1-(2-methane-sulfonylethyl)-4-methoxy-N1-methylbenzene-1,3-dicarboxamide], the EC50 was 34.9 nM. For COc1ccc(CCc2ccc(F)cc2)cc1C(=O)NC1C2CCC(/C2=C/C(F)(F)F)[C@@H]1C(=O)Nc1ccc(F)c(C(F)(F)F)c1 (stereo partly drawn) [Example 179, (7Z)-N-[4-fluoro-3-(trifluoromethyl)phe-nyl]-3-{5-[2-(4-fluorophenyl)ethyl]-2-methoxybenzamido}-7-(2,2,2-trifluoroethylidene)bi-cyclo[2.2.1]heptane-2-carboxamide], the EC50 was 267 nM. Molecule COc1ccc(S(=O)(=O)CCO)cc1C(=O)N[C@H]1[C@@H](C(=O)Nc2ccc(F)c(C(F)(F)F)c2)[C@H]2CC[C@@H]1/C2=C\C(F)(F)F [Example 4, (1R,2S,3R,4R,Z)—N-(4-fluoro-3-(trifluoromethyl)phenyl)-3-(5-((2-hydroxyethyl)sulfonyl)-2-methoxybenzamido)-7-(2,2,2-trifluoroethylidene) bicyclo[2.2.1]heptane-2-carboxamide] has an EC50 of 337 nM. Work on COc1ccc(C(=O)N2CC3CCC(C2)O3)cc1C(=O)N[C@H]1[C@@H](C(=O)Nc2ccc(F)c(C(F)(F)F)c2)[C@H]2CC[C@@H]1/C2=C\C1CC1 [Example 259, (1R,2S,3R,4R,7Z)-7-(cyclopropylmethylidene)-N-[4-fluoro-3-(trifluoromethyl)phenyl]-3-(2-methoxy-5-{8-oxa-3-azabicyclo[3.2.1]octane-3-carbonyl}benzamido) bicyclo[2.2.1] heptane-2-carboxamide] yielded an EC50 of 367 nM.
